In patent US9962329B2, “Cosmetic use of the combination of a carob germ extract and caffeine as a slimming active agent” (ISP INVESTMENTS INC., priority 2012, dated 2018):

What was measured:
aquaglyceroporin 7 = test: Immuno-detection of aquaglyceroporin 7 expression in differentiated 3T3-L1 adipocyte cells; type: cell-based; details: differentiated 3T3-L1 cells; with respect to untreated control; carob extract 1% daily for 12 days, caffeine 2 mM for 5 hours
Procedure: 3T3-L1 adipocyte cells are cultivated in a DMEM medium with 4.5 g/l glucose, 2 mM glutamine and 10% fetal bovine serum. Two days after the cell confluence phase, the differentiation of 3T3-L1 cells into adipocytes is induced by adding a solution of 0.5 mM of IBMX, 1 μM of dexamethasone and 10 μg/ml of insulin (Sigma, St. Louis, Mo., USA) in the culture medium for 3 days. Then, only the insulin is kept for 3 to 4 days of additional culture. The cells are then kept in culture, in a standard medium, for another 3 days. The treatment is performed from the start of the differentiation induction phase by a daily application, for 12 days, of 1×PBS (Lonza, Rockland, Me., USA) for the untreated control, carob germ extract with a dry weight of 2.5 g/kg as obtained in example 1, diluted to 1% in PBS, or carob germ extract as obtained in example 1, diluted to 1% in PBS and to which 2 mM of caffeine is added for the last 5 hours of the treatment. A 5-hour treatment with 2 mM of caffeine was also performed. […] The cell membranes are permeabilized with acetone for 4 minutes at -20° C. The non-specific sites are saturated with 3% bovine serum albumin (Sigma-Aldrich, […], Germany) for 15 minutes. […] Three images for each condition are analyzed using the Image-Pro Analyzer 6.3 software. […]

[1] = tested on: differentiated 3T3-L1 adipocyte cells; test: Nile Red detection of lipid droplets (intensity, size, number) in adipocytes; type: cell-based
Procedure: The culture, the differentiation of 3T3-L1 cells, then the treatment with the compounds to be tested are performed as in example 2. The lipid detection is performed using Nile Red fluorescent stain, a phenoxazone that intensely labels the intracellular lipids. The color of the fluorescence observed is directly dependent upon the hydrophobicity of the surrounding medium. This specific property of Nile Red makes it possible to differentiate neutral lipids, labeled in gold-yellow, from phospholipids, labeled in red. […] The cells are examined with the fluorescence microscope. The quantification and statistical analysis are performed as in example 2.

[2] = with respect to untreated cells

SMILES: Cn1c(=O)c2c(ncn2C)n(C)c1=O [Caffeine, caffeine]
- increase in fluorescence (aquaglyceroporin 7 immunolabeling) (aquaglyceroporin 7): 12.6%
- Average droplet size ([1]; differentiated 3T3-L1 cells): 109.55 μm^2
- Number of droplets ([1]; differentiated 3T3-L1 cells): 219
- Intensity of the Nile Red labeling, Ratio ([1]; differentiated 3T3-L1 cells, carob extract 1% 12 days, caffeine 2 mM 5 hours): 180.47 Pixels/μm^2
- intensity of the Nile Red labeling, size and number of droplets (in words) ([1]; with respect to the untreated cells): reduced
- Droplet size, % reduction [1, 2]: −17.40%
- Intensity of the Nile Red labeling, % reduction [1, 2]: −37.36%
- Number of droplets, % reduction [1, 2]: −18%
